Data: patent US6610677B2, “Pyrazole compounds useful as protein kinase inhibitors” (Vertex Pharmaceuticals Incorporated, priority 2000, dated 2003)

Experiments:
[1] = molecular target: activated ERK2 (Homo sapiens, UniProt P28482); assay: ERK inhibition assay (spectrophotometric coupled-enzyme assay); assay type: biochemical; settings: 10 nM activated ERK2, 65 μM ATP, 200 μM erktide; read-out: Ki value for ERK-2
Experimental: Compounds were assayed for the inhibition of ERK2 by a spectrophotometric coupled-enzyme assay (Fox et al (1998) Protein Sci 7, 2249). In this assay, a fixed concentration of activated ERK2 (10 nM) was incubated with various concentrations of the compound in DMSO (2.5%) for 10 min. at 30° C. in 0.1 M HEPES buffer, pH 7.5, containing 10 mM MgCl2, 2.5 mM phosphoenolpyruvate, 200 μM NADH, 150 μg/mL pyruvate kinase, 50 μg/mL lactate dehydrogenase, and 200 μM erktide peptide. The reaction was initiated by the addition of 65 μM ATP. The rate of decrease of absorbance at […] was monitored. The IC50 was evaluated from the rate data as a function of inhibitor concentration.

[2] = molecular target: T1, GSK-3β (AA 1-420) (Homo sapiens, UniProt P49841); assay: Ki determination for the inhibition of GSK-3 (coupled enzyme system); assay type: biochemical; settings: 20 μM ATP, 300 μM peptide, 20 nM GSK-3β, 30° C
T1 construct: GSK-3β (AA 1-420)
T1 sequence (P49841 whole entry, the tested form may be a part): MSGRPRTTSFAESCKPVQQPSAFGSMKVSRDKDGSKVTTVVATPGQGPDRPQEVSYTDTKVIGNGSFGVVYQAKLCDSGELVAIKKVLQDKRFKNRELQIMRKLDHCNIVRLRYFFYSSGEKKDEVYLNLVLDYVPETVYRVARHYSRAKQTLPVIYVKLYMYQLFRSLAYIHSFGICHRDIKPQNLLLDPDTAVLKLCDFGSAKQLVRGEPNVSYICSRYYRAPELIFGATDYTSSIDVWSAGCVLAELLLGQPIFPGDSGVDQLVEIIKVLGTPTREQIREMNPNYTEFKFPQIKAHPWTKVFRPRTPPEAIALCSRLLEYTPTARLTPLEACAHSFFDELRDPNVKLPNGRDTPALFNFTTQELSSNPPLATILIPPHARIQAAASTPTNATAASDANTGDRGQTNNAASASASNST
Outline: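 Ki values come from reaction rates over 10 min at 30 °C as a function of inhibitor concentration (12-point titration, 0.002–30 μM, 10 min preincubation). GSK-3β (AA 1-420, 20 nM) phosphorylated 300 μM primed peptide with 20 μM ATP; ADP formation followed by coupled NADH oxidation, pH 7.5.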

[3] = molecular target: T2, human Src kinase (Homo sapiens, UniProt P12931); assay: SRC inhibition assay (radioactivity-based or spectrophotometric assay); assay type: biochemical; settings: assay A or B not specified; read-out: Ki value on SRC
T2 construct: full length recombinant human Src kinase; purchased Upstate Biotechnology 14-117; host or cells: baculo viral cells (baculovirus expression system)
T2 sequence (P12931 whole entry): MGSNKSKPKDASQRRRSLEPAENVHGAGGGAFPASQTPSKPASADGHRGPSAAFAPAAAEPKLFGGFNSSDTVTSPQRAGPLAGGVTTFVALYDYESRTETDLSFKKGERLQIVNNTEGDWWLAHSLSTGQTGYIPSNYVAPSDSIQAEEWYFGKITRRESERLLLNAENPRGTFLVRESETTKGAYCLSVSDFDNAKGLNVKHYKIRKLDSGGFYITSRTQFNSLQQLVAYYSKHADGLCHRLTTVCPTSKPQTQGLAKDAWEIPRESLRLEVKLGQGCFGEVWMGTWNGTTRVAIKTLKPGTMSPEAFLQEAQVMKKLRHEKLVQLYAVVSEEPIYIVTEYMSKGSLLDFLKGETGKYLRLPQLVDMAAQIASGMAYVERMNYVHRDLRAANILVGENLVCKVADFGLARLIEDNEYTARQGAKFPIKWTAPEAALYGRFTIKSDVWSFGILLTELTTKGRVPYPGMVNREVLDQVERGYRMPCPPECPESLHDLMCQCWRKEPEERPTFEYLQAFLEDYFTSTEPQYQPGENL
Experimental: The compounds were evaluated as inhibitors of human Src kinase using either a radioactivity-based assay or spectrophotometric assay. The compounds were assayed as inhibitors of full length recombinant human Src kinase (from Upstate Biotechnology, cat. no. 14-117) expressed and purified from baculo viral cells. […] P-0275). […] In a typical assay, all the reaction components with the exception of ATP were pre-mixed and aliquoted into assay plate wells. Inhibitors dissolved in DMSO were added to the wells to give a final DMSO concentration of 2.5%. The assay plate was incubated at 30° C. for 10 min before initiating the reaction with ^33P-ATP. After 20 min of reaction, the reactions were quenched with 150 μl of 10% trichloroacetic acid (TCA) containing 20 mM Na3PO4. The quenched samples were then transferred to a 96-well filter plate (Whatman, UNI-Filter GF/F Glass Fiber Filter, cat no. 7700-3310) installed on a filter plate vacuum manifold. Filter plates were washed four times with 10% TCA containing 20 mM Na3PO4 and then 4 times with methanol. 200 μl of scintillation fluid was then added to each well. The plates were sealed and the amount of radioactivity associated with the filters was quantified on a TopCount scintillation counter. The radioactivity incorporated was plotted as a function of the inhibitor concentration. The data was fitted to a competitive inhibition kinetics model to get the Ki for the compound. The ADP produced from ATP by the human recombinant Src kinase-catalyzed phosphorylation of poly Glu-Tyr substrate was quanitified using a coupled enzyme assay (Fox et al (1998) Protein Sci 7, 2249). In this assay one molecule of NADH is oxidised to NAD for every molecule of ADP produced in the kinase reaction. The disappearance of NADH can be conveniently followed at 340 nm. […] In a typical assay, all the reaction components with the exception of ATP were pre-mixed and aliquoted into assay plate wells. Inhibitors dissolved in DMSO were added to the wells to give a final DMSO concentration of 2.5%. […] The absorbance change at 340 nm with time, the rate of the reaction, was monitored on a molecular devices plate reader. The data of rate as a function of the inhibitor concentration was fitted to compettive inhibition kinetics model to get the Ki for the compound.

[4] = molecular target: T3, Aurora-2 (Homo sapiens, UniProt O14965); assay: Ki determination for the inhibition of Aurora-2 (coupled enzyme assay); assay type: biochemical; settings: 70 nM Aurora-2, peptide LRRASLG, 30° C
T3 sequence (O14965 1-403): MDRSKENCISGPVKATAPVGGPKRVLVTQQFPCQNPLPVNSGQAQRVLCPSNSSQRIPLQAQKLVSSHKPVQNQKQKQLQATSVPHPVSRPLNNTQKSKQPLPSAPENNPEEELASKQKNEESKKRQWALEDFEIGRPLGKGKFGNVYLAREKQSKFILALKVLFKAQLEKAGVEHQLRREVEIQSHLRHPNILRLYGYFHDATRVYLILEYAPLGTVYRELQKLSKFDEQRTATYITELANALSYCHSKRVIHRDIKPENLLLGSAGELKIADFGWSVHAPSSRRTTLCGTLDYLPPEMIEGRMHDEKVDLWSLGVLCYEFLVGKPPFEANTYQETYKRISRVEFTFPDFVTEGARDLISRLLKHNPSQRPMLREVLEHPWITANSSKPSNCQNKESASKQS
Outline: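 Ki came from reaction rates plotted against inhibitor concentration, with rates taken as A340 decrease over 5 min at 30° C. Enzyme (70 nM final) was added after 10 min compound preincubation; stock buffer held […], 800 μM LRRASLG, PK/LDH coupling, pH 7.5.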

Chain of activated ERK2 (P28482 whole entry): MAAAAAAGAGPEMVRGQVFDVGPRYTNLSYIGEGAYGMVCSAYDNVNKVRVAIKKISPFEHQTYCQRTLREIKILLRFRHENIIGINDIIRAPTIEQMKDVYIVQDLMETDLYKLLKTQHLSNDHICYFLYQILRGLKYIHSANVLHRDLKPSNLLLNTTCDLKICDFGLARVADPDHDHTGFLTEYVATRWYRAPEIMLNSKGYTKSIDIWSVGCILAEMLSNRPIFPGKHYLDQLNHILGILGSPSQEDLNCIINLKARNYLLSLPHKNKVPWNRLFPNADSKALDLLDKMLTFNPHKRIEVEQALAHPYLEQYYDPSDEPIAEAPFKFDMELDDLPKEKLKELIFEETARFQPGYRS

Row | Compound | Ki [1] | Ki [2] | melting point | Ki [3] | Ki [4]
1 | CCc1cc(Nc2nc(-c3ccccc3)nc3ccccc23)[nH]n1 [III-65] | – | < 100 nM | 221 to 222 °C | < 100 nM | < 100 nM
2 | CCCc1cc(Nc2nc(-c3ccccc3)nc3ccccc23)[nH]n1 [III-66, (2-Phenyl-quinazolin-4-yl)-(5-propyl-2H-pyrazol-3-yl)-amine] | – | < 100 nM | 204 to 205 °C | < 100 nM | < 100 nM
3 | c1ccc(COCCCc2cc(Nc3nc(-c4ccccc4)nc4ccccc34)[nH]n2)cc1 [III-78, [5-(3-Benzyloxyprop-1-yl)-2H-pyrazol-3-yl]-(2-phenyl-quinazolin-4-yl)-amine] | – | 100 to 1000 nM | 177 to 178 °C | < 100 nM | < 100 nM
4 | Cc1cc(Nc2nc(N3CCCCCC3)nc3ccccc23)[nH]n1 [III-109] | < 1000 nM | < 100 nM | 269 °C | – | < 100 nM
5 | CC1CCN(c2nc(Nc3cc(C4CC4)n[nH]3)c3ccccc3n2)CC1 [III-111, (5-Cyclopropyl-2H-pyrazol-3-yl)-[2-(4-methylpiperidin-1-yl)-quinazolin-4-yl]-amine] | < 1000 nM | < 100 nM | – | – | < 100 nM
6 | OCC1CCN(c2nc(Nc3cc(C4CC4)n[nH]3)c3ccccc3n2)CC1 [III-120, (5-Cyclopropyl-2H-pyrazol-3-yl)-[2-(4-hydroxymethylpiperidin-1-yl)-quinazolin-4-yl]-amine] | < 1000 nM | < 100 nM | 142 °C | – | < 100 nM

Other lines, results leading:

Row | Ki [1] | Ki [2] | melting point | Ki [3] | Ki [4] | Compound
7 | 1000 to 12000 nM | < 100 nM | 218 to 219 °C | < 100 nM | < 100 nM | c1ccc(-c2nc(Nc3cc(C4CC4)n[nH]3)c3ccccc3n2)cc1 [III-40, (5-Cyclopropyl-2H-pyrazol-3-yl)-(2-phenyl-quinazolin-4-yl)-amine]
8 | – | < 100 nM | 204 to 207 °C | < 100 nM | < 100 nM | C#Cc1cccc(-c2nc(Nc3cc(C)n[nH]3)c3ccccc3n2)c1 [III-49, [2-(3-Ethynylphenyl)-quinazolin-4-yl]-(5-methyl-2H-pyrazol-3-yl)-amine]
9 | 1000 to 12000 nM | < 100 nM | 247 to 249 °C | – | < 100 nM | c1ccc(-c2nc(Nc3ccn[nH]3)c3ccccc3n2)cc1 [III-63, (2-Phenyl-quinazolin-4-yl)-(2H-pyrazol-3-yl)-amine]
10 | – | < 100 nM | 240 to 241 °C | < 100 nM | < 100 nM | c1ccc(-c2nc(Nc3cc(C4CCCC4)n[nH]3)c3ccccc3n2)cc1 [III-70, (5-Cyclopentyl-2H-pyrazol-3-yl)-(2-phenyl-quinazolin-4-yl)-amine]
11 | – | < 100 nM | 164 to 165 °C | < 100 nM | < 100 nM | OCCCc1cc(Nc2nc(-c3ccccc3)nc3ccccc23)[nH]n1 [III-76, [5-(3-Hydroxyprop-1-yl)-2H-pyrazol-3-yl]-(2-phenyl-quinazolin-4-yl)-amine]
12 | 1000 to 12000 nM | < 100 nM | 294 °C | – | < 100 nM | Cc1cc(Nc2nc(N3CCCCC3)nc3ccccc23)[nH]n1 [III-108, (5-Methyl-2H-pyrazol-3-yl)-(2-piperidin-1-yl-quinazolin-4-yl)-amine]
13 | < 1000 nM | 100 to 1000 nM | 131 °C | – | < 100 nM | OC1(c2ccccc2)CCN(c2nc(Nc3cc(C4CC4)n[nH]3)c3ccccc3n2)CC1 [III-115, (5-Cyclopropyl-2H-pyrazol-3-yl)-[2-(4-hydroxy-4-phenylpiperidin-1-yl)-quinazolin-4-yl]-amine]
14 | < 1000 nM | < 100 nM | 199 to 200 °C | – | < 100 nM | c1ccc2c(Nc3cc(C4CC4)n[nH]3)nc(N3CCCCCC3)nc2c1 [III-117]
15 | < 1000 nM | < 100 nM | 182 to 184 °C | – | < 100 nM | c1ccc2c(c1)CCN(c1nc(Nc3cc(C4CC4)n[nH]3)c3ccccc3n1)C2 [III-118, (5-Cyclopropyl-2H-pyrazol-3-yl)-[2-(3,4-dihydro-1H-isoquinolin-2-yl)-quinazolin-4-yl]-amine]
